This note sets out measurements from EPA's ToxValDB 9.5 (doi:10.2903/j.efsa.2009.239r).

The subject of one series is Coturnix japonica. The settings on record: acute, oral, mortality.
For a further series, the system named is Hypoaspis aculeifer. As to conditions: chronic/long-term, duration: 14 days.
The test system of another series is Canidae. The settings on record: oral, Dog Other, clinical signs.
For a further series, the system named is Apis mellifera. The settings on record: acute; duration: 48 hours; dermal; mortality.
The next series relates to Lepomis macrochirus. As to conditions: acute; duration: 96 hours; mortality.
The subject of the next series is Bibionidae. The settings on record: chronic/long-term; duration: 28 days.
The next series concerns Daphnia magna. As to conditions: acute; duration: 48 hours; mortality.
The test system of the next series is Tagia sp. The settings on record: acute; duration: 14 days; mortality.
Another series concerns Chrysoperla externa. As to conditions: not reported; mortality.
Another series relates to Anas platyrhynchos. As to conditions: oral, mortality.

Values after ≈ are worked out from the molar mass of the structure shown.

Turning to `CCOC(=O)CCN(SN(C)C(=O)Oc1cccc2c1OC(C)(C)C2)C(C)C` [Benfuracarb], the LD50 worked out at 39.9 mg/kg-day in the series with Coturnix japonica (F); 48.3 mg/kg-day with Coturnix japonica (M); 205 mg/kg-day in the series on Rattus norvegicus (acute, oral, mortality); 0.19 µg/piece in the series on Apis mellifera; 5.2 g/ha in the series on Chrysoperla externa; 19.8 mg/kg-day with Anas platyrhynchos (acute, unspecified). Further, the no-observed-adverse-effect level (NOAEL) is 1.2 mg/kg-day in the series with Rattus norvegicus (reproduction developmental, reproduction); 1.8 mg/kg-day in the series on Rattus norvegicus (short-term, duration: 28 days, clinical signs); 1 mg/kg-day with Canidae (chronic, duration: 6 months); 1 mg/kg-day in the series with Canidae (chronic, duration: 24 months); 1 mg/kg-day in the series on Canidae (subchronic, duration: 13 weeks). In addition, the LC50 in the series with Colinus virginianus (acute, oral, diet, mortality) was 179 mg/kg-day; in the series on Lepomis macrochirus, 0.017 µg/mL (≈ 0.0414 µM); with Daphnia magna, 0.0099 µg/mL (≈ 0.0241 µM); in the series with Tagia sp., 58 mg/kg; in the series on Anas platyrhynchos (short-term, feed) it was 15 mg/kg-day. The compound further gave an NOEL with Colinus virginianus (reproduction developmental) of 8.93 mg/kg-day. Moreover, the LEL in the series with Hypoaspis aculeifer (mortality) and with Hypoaspis aculeifer (reproduction) was 1000 g/ha each time. Further, the NOEC in the series on Bibionidae was 0.001 mg/L; in the series with Tagia sp., under 10 mg/kg.

For orientation: NOAEL means the highest dose or exposure tested at which no adverse effect was seen.
